Measured values: patent US8168651B2, “Protein kinase modulators” (Cylene Pharmaceuticals, Inc., priority 2008, dated 2012)

What was measured:
[1] = biological target: other protein kinases (each individual kinase); assay: Standardized radiometric kinase assays, IC50 over 10 drug concentrations; assay type: biochemical; conditions: estimated
[2] = biological target: each individual kinase of the panel (Homo sapiens, UniProt O00418); assay: Standardized radiometric kinase assays, percentage of activity at 0.5 μM; conditions: for % Activity: eEF-2K(h);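 on all read-outs here: Read-out is ³³P-labelled substrate protein phosphorylated by each kinase, captured on filters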
Sequence of each individual kinase of the panel (Homo sapiens, UniProt O00418) (O00418 2-725 limits assumed): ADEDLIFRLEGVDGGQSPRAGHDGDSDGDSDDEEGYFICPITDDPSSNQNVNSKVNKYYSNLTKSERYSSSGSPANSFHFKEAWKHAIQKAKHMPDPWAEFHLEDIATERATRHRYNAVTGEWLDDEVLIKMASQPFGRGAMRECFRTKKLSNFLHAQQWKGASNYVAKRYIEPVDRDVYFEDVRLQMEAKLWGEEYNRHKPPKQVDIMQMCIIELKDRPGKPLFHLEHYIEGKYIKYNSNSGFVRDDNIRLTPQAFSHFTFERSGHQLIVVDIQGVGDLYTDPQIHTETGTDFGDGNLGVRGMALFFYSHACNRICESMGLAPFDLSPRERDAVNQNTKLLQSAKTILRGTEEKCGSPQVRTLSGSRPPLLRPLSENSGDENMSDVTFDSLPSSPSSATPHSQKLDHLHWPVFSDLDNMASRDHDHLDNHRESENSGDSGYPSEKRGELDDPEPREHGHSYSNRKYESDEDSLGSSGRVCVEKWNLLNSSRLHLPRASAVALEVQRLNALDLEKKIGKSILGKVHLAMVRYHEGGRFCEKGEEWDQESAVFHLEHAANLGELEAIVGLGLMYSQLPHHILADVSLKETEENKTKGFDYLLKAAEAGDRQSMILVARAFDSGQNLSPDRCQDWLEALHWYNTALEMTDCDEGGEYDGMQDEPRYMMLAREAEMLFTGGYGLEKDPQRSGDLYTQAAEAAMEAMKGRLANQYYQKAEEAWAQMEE

[3] = biological target: each individual kinase of the panel (Homo sapiens, UniProt O14757); assay: as above; conditions: for % Activity: CHK1(h)
[4] = biological target: each individual kinase of the panel (Homo sapiens, UniProt O15530); assay: as above; conditions: for % Activity: PDK1(h)
[5] = biological target: each individual kinase of the panel (Homo sapiens, UniProt P08581); assay: as above; conditions: for % Activity: Met(h)
[6] = biological target: each individual kinase of the panel (Homo sapiens, UniProt P11309); assay: as above; conditions: for % Activity: Pim-1(h)
[7] = biological target: each individual kinase of the panel (Homo sapiens, UniProt P12931); assay: as above; conditions: for % Activity: cSRC(h)
Sequence of each individual kinase of the panel (Homo sapiens, UniProt P12931) (P12931 2-536 limits assumed): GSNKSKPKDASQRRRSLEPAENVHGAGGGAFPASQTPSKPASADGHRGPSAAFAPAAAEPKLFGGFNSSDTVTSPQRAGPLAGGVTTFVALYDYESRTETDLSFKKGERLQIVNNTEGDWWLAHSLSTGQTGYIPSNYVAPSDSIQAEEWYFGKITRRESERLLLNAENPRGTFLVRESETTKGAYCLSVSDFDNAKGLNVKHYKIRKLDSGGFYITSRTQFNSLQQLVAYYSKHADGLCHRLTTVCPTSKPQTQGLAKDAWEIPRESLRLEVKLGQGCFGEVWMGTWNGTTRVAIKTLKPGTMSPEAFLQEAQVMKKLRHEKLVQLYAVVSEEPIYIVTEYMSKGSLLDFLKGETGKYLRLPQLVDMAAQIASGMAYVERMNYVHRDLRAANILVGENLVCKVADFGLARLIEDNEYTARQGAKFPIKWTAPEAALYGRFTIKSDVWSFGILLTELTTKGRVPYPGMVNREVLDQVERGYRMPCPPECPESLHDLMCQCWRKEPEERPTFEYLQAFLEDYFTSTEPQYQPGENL

[8] = biological target: each individual kinase of the panel (Homo sapiens, UniProt P16234, D842V); assay: as above; conditions: for % Activity: PDGFRα(D842V)(h)
Sequence of each individual kinase of the panel (Homo sapiens, UniProt P16234, D842V) (P16234 24-1089 D842V limits assumed): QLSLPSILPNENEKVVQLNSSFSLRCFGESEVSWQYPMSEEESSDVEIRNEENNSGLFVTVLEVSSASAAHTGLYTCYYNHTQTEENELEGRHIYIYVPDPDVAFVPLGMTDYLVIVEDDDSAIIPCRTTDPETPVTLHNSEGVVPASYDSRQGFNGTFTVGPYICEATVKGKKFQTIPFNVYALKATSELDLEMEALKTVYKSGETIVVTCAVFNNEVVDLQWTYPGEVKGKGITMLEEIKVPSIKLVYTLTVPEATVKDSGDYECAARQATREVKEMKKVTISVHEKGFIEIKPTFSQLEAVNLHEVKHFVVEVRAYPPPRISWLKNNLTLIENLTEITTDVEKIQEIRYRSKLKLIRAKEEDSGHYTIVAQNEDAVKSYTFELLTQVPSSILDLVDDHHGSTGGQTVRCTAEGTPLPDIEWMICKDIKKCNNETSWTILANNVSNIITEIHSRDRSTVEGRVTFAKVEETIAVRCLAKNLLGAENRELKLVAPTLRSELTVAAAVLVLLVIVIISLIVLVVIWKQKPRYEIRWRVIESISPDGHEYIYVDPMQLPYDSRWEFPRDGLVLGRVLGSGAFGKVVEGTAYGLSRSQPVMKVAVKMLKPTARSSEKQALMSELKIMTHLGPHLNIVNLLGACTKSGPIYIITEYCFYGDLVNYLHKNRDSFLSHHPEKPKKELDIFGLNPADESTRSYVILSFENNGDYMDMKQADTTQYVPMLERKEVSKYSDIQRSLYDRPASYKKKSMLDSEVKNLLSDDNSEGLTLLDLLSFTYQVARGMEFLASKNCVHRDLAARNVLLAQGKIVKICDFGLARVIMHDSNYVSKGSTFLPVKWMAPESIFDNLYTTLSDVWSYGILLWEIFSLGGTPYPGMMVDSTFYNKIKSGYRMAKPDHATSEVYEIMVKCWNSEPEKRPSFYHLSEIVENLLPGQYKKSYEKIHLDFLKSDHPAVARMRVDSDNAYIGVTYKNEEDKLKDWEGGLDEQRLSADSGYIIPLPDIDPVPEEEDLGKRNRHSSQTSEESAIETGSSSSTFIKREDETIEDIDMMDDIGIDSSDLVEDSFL

[9] = biological target: each individual kinase of the panel (Homo sapiens, UniProt P16591); assay: as above; conditions: for % Activity: Fer(h)
[10] = biological target: each individual kinase of the panel (Homo sapiens, UniProt P31749); assay: as above; conditions: for % Activity: PKBα(h)
[11] = biological target: each individual kinase of the panel (Homo sapiens, UniProt P36888, D835Y); assay: as above; conditions: for % Activity: Flt3(D835Y)(h)
[12] = biological target: each individual kinase of the panel (Homo sapiens, UniProt P42345); assay: as above; conditions: for % Activity: mTOR(h)
[13] = biological target: each individual kinase of the panel (Homo sapiens, UniProt P50750); assay: as above; conditions: for % Activity: CDK9/cyclin T1 (h)
[14] = biological target: each individual kinase of the panel (Homo sapiens, UniProt P53350); assay: as above; conditions: Plk1(h)
[15] = biological target: each individual kinase of the panel (Homo sapiens, UniProt P54760); assay: as above; conditions: for % Activity: EphB4(h)
[16] = biological target: each individual kinase of the panel (Homo sapiens, UniProt Q13177); assay: as above; conditions: for % Activity: PAK2(h)
Sequence of each individual kinase of the panel (Homo sapiens, UniProt Q13177) (Q13177 2-524 limits assumed): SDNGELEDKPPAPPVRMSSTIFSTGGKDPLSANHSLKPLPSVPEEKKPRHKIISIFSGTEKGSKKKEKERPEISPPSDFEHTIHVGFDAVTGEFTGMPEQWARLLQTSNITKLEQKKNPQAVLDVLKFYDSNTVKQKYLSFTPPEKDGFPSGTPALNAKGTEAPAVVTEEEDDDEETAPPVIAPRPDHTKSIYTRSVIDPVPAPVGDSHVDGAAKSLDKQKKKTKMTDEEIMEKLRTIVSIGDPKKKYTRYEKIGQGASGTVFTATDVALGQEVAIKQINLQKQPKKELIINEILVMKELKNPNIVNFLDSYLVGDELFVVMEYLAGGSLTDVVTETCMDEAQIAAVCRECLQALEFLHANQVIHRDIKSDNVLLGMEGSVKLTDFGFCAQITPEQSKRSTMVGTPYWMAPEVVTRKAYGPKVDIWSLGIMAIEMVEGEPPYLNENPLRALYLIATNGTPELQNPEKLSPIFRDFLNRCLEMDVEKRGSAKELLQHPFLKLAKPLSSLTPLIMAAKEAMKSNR

[17] = biological target: each individual kinase of the panel (Homo sapiens, UniProt Q13464); assay: as above; conditions: for % Activity: ROCK-I(h)
Sequence of each individual kinase of the panel (Homo sapiens, UniProt Q13464) (Q13464 2-1354 limits assumed): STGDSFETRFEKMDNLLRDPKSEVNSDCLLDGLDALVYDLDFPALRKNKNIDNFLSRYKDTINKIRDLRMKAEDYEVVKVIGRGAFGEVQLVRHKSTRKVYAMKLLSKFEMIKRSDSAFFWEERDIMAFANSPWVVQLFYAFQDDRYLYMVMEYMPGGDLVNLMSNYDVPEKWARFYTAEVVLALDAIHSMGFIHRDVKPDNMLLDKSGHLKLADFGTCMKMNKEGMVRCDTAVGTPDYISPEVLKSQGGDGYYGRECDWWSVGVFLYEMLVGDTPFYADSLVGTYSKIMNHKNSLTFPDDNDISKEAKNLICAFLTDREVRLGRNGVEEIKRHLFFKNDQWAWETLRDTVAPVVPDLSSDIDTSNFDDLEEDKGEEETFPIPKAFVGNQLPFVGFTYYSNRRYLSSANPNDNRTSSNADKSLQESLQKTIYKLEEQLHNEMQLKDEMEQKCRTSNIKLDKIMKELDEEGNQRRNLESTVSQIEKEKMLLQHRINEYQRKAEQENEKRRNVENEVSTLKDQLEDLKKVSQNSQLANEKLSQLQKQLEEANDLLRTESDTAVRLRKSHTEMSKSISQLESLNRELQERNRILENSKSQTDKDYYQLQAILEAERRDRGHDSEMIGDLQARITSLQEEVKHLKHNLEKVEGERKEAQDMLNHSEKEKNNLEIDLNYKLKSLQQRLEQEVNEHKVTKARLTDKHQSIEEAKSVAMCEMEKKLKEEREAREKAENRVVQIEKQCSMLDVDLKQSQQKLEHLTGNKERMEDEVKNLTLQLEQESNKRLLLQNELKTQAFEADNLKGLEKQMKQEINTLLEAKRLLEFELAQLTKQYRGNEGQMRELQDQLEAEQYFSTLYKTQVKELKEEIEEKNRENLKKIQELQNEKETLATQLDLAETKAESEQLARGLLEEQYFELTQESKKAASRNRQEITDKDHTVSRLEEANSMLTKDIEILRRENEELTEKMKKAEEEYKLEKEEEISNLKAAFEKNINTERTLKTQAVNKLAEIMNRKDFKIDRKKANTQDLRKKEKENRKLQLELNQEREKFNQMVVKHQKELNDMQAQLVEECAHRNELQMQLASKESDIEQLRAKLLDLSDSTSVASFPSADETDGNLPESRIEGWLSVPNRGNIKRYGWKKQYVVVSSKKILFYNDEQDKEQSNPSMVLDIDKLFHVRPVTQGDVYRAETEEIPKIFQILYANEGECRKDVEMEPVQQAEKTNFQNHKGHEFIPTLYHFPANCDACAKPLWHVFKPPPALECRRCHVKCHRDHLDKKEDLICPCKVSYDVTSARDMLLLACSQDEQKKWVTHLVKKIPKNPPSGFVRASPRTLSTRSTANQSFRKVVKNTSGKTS

[18] = biological target: each individual kinase of the panel (Homo sapiens, UniProt Q13976); assay: as above; conditions: for % Activity: PKG1α(h)
Sequence of each individual kinase of the panel (Homo sapiens, UniProt Q13976) (Q13976 2-671 limits assumed): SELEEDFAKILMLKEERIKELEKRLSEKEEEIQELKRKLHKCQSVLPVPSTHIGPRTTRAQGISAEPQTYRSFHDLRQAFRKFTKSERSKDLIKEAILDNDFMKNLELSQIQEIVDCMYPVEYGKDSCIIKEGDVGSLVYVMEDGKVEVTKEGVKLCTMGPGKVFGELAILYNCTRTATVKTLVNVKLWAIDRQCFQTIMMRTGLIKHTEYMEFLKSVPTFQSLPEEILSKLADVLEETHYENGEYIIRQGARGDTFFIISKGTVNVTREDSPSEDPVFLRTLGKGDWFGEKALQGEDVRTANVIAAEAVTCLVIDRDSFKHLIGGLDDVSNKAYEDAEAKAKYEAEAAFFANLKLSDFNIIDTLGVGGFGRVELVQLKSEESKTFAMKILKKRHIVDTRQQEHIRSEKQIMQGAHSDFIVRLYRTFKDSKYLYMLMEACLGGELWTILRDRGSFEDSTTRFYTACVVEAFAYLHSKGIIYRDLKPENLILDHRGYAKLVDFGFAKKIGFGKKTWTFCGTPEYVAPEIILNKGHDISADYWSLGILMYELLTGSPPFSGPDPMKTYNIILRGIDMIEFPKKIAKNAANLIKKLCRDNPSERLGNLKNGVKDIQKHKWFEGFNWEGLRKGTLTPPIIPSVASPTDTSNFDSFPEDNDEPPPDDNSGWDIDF

[19] = biological target: each individual kinase of the panel (Homo sapiens, UniProt Q15418); assay: as above; conditions: for % Activity: Rsk1(h)
[20] = biological target: each individual kinase of the panel (Homo sapiens, UniProt Q16832); assay: as above
[21] = biological target: each individual kinase of the panel (Homo sapiens, UniProt Q99683); assay: as above; conditions: for % Activity: ASK1(h)
[22] = biological target: each individual kinase of the panel (Homo sapiens, UniProt Q9H422); assay: as above; conditions: for % Activity: HIPK3(h)
[23] = biological target: each individual kinase of the panel (Homo sapiens, UniProt Q9UK32); assay: as above; conditions: for % Activity: Rsk4(h)
[24] = biological target: each individual kinase of the panel (Homo sapiens, UniProt O14920); assay: as above
[25] = biological target: each individual kinase of the panel (Homo sapiens, UniProt P51813); assay: as above
[26] = biological target: each individual kinase of the panel (Homo sapiens, UniProt Q13882); assay: as above
[27] = biological target: each individual kinase of the panel (Homo sapiens, UniProt Q16539); assay: as above
[28] = biological target: each individual kinase of the panel (Mus musculus, UniProt P16277); assay: as above

## Clc1ccccc1Nc1nc2c(-c3nnc[nH]3)cccc2c2cnccc12 [A]
[1]; Flt3(h)
  IC50: 104 nM
[1]; Pim-1(h)
  IC50: 1 nM
[1]; Pim-2(h)
  IC50: 6 nM
[1]; Pim-3(h)
  IC50: 86 nM
[1]; Rsk1(h)
  IC50: 41 nM
[1]; Rsk2(h)
  IC50: 72 nM
[1]; Rsk3(h)
  IC50: 73 nM
[1]; Rsk4(h)
  IC50: 37 nM
[2]
  % Activity: 111%
[3]
  % Activity: 108%
[4]
  % Activity: 101%
[5]
  % Activity: 22%
[6]
  % Activity: 1%
[7]
  % Activity: 64%
[8]
  % Activity: 17%
[9]
  % Activity: 90%
[10]
  % Activity: 98%
[11]
  % Activity: 24%
[12]
  % Activity: 99%
[13]
  % Activity: 37%
[14]
  % Activity: 96%
[15]
  % Activity: 87%
[16]
  % Activity: 106%
[17]
  % Activity: 94%
[18]
  % Activity: 40%
[19]
  % Activity: 6%
[20]; DDR2(h)
  % Activity: 90%
[21]
  % Activity: 92%
[22]
  % Activity: 2%
[23]
  % Activity: 12%

## NC(=O)c1cccc2c1nc(Nc1cccc(Cl)c1)c1ccncc12 [B]
[2]
  % Activity: 93%
[3]
  % Activity: 91%
[4]
  % Activity: 88%
[5]
  % Activity: 96%
[6]
  % Activity: 9%
[7]
  % Activity: 74%
[8]
  % Activity: 15%
[9]
  % Activity: 103%
[10]
  % Activity: 90%
[11]
  % Activity: 2%
[12]
  % Activity: 101%
[13]
  % Activity: 18%
[14]
  % Activity: 76%
[15]
  % Activity: 105%
[16]
  % Activity: 108%
[17]
  % Activity: 97%
[18]
  % Activity: 34%
[19]
  % Activity: 21%
[21]
  % Activity: 93%
[22]
  % Activity: −1%
[23]
  % Activity: 41%

## C#Cc1cccc(Nc2nc3cc(C(=O)O)ccc3c3cncnc23)c1 [drawing 1135]
[2]
  eEF−2K(h) percentage of activity: −6%
[3]
  CHK1 percentage of activity: 1%
[24]
  IKK beta percentage of activity: 5%
[4]
  PDK1 percentage of activity: −10%
[5]
  MET percentage of activity: −22%
[6]
  PIM1 percentage of activity: 73%
[7]
  SRC percentage of activity: −2%
  Src(1-530) percentage of activity: −1%
[8]
  PDGFRA (D842V) percentage of activity: −9%
[9]
  FER percentage of activity: −3%
[10]
  AKT1 percentage of activity: −4%
[11]
  FLT3(D835Y) percentage of activity: 83%
[12]
  mTOR percentage of activity: 15%
[13]
  CDK9/cyclin T1 percentage of activity: 0%
[25]
  BMX percentage of activity: −18%
[15]
  EPHB4 percentage of activity: −44%
[16]
  PAK2 percentage of activity: −12%
[17]
  ROCK-I percentage of activity: 3%
[26]
  BRK percentage of activity: −10%
[18]
  PRKG1 percentage of activity: −5%
[19]
  RPS6KA1 percentage of activity: 22%
[27]
  p38-alpha percentage of activity: 1%
[20]
  DDR2 percentage of activity: −9%
[21]
  ASK percentage of activity: −16%
[22]
  HIPK3 percentage of activity: 90%
[23]
  RPS6KA6 percentage of activity: 22%
[28]
  Blk(m) percentage of activity: 0%

## C#Cc1cccc(Nc2nc3cc(C(=O)O)ccc3c3cnccc23)c1 [drawing 1137]
[2]
  eEF−2K(h) percentage of activity: −8%
[3]
  CHK1 percentage of activity: 13%
[4]
  PDK1 percentage of activity: 8%
[5]
  MET percentage of activity: −16%
[6]
  PIM1 percentage of activity: 75%
[7]
  SRC percentage of activity: 22%
  Src(1-530) percentage of activity: 11%
[8]
  PDGFRA (D842V) percentage of activity: 78%
[9]
  FER percentage of activity: 6%
[10]
  AKT1 percentage of activity: 7%
[11]
  FLT3(D835Y) percentage of activity: 97%
[13]
  CDK9/cyclin T1 percentage of activity: 27%
[25]
  BMX percentage of activity: 8%
[15]
  EPHB4 percentage of activity: −8%
[16]
  PAK2 percentage of activity: 1%
[17]
  ROCK-I percentage of activity: 12%
[26]
  BRK percentage of activity: 18%
[18]
  PRKG1 percentage of activity: −4%
[19]
  RPS6KA1 percentage of activity: 54%
[20]
  DDR2 percentage of activity: 12%
[21]
  ASK percentage of activity: −1%
[22]
  HIPK3 percentage of activity: 91%
[23]
  RPS6KA6 percentage of activity: 65%
[28]
  Blk(m) percentage of activity: 33%

## NC(=O)c1ccc2c(c1)nc(Nc1cccc(Cl)c1)c1ccncc12 [drawing 1138]
[2]
  eEF−2K(h) percentage of activity: −3%
[3]
  CHK1 percentage of activity: −1%
[4]
  PDK1 percentage of activity: 7%
[5]
  MET percentage of activity: −6%
[6]
  PIM1 percentage of activity: 18%
[8]
  PDGFRA (D842V) percentage of activity: 64%
[9]
  FER percentage of activity: 8%
[10]
  AKT1 percentage of activity: 7%
[11]
  FLT3(D835Y) percentage of activity: 99%
[13]
  CDK9/cyclin T1 percentage of activity: 45%
[15]
  EPHB4 percentage of activity: −16%
[16]
  PAK2 percentage of activity: 4%
[17]
  ROCK-I percentage of activity: 11%
[18]
  PRKG1 percentage of activity: 4%
[19]
  RPS6KA1 percentage of activity: 55%
[20]
  DDR2 percentage of activity: 5%
[21]
  ASK percentage of activity: 2%
[22]
  HIPK3 percentage of activity: 57%
